The text below walks through data of article PMC9077138, “An investigation on 3-acetyl-7-methoxy-coumarin Schiff bases and their Ru(II) metallates with potent antiproliferative activity and enhanced LDH and NO release” (RSC Advances, 2018).

For one test, the system named is Trichophyton rubrum. In words: In vitro antifungal assay (zone of inhibition, MIC). It is filed as cell-based. As for the experimental part: (§1) The free ligands and their cyclometallated ruthenium(II) carbonyl complexes were screened for their in vitro antimicrobial activity against certain pathogenic bacterial and fungal species at three different concentrations using disc diffusion method.
(§2) Antimicrobial activities of [RuHClCO(PPh3)3], ligands H2L^1–4 and new organometallic Ru(II) complexes (1–4) were evaluated by agar well diffusion method[76] as reported, by taking Staphylococcus aureus, Streptococcus pneumonie, Pseudomonas aeruginosa, Salmonella paratyphi and fungus such as Candida albicans, Trichophyton rubrum, Aspergillus niger, Aspergillus fumigatus and Candida tropicalis. The above said all test organisms were obtained from the MTCC, Chandigarh, India and Microbiological laboratory, Coimbatore, Tamil Nadu, India. The antimicrobial activity of the test compounds was checked with various concentrations (25 μg ml^−1, 50 μg ml^−1 and 100 μg ml^−1) against all the test pathogens. Gentamicin and ketoconazole were used as positive controls to study the antibacterial and antifungal activities respectively. Each experiment was performed in triplicate and the results are represented as average zone of inhibition and minimum inhibitory concentration of all the test pathogens.

The subject of the next test is Candida tropicalis. The description is as above. It is filed as cell-based. As for the experimental part:
as §1, §2

The subject of the next test is Aspergillus niger. The test is described as above. It is filed as cell-based. Here is the method: as §1, §2
The subject of the next test is Aspergillus fumigatus. The test is described as above. It is filed as cell-based. As for the experimental part:
as §1, §2

In test [1] the test system is human normal keratinocyte cells (HaCaT). In words: MTT cytotoxicity assay. It is filed as cell-based. To be noted: Homo sapiens, HaCaT, 48 h, read-out: IC50 values HaCaT. Here is the method:
In order to investigate the selectivity of the compounds for cancer cells rather than normal cell lines, the compounds were also screened for their anticancer activity on the human normal keratinocyte cells (HaCaT).
Cytotoxic activity of the compounds was tested with human lung cancer cell lines A549, human breast cancer cell lines MCF-7 and human normal keratinocyte cells (HaCaT) by using MTT assay, which was done according to the earlier literature methods[77] and IC50 values obtained from nonlinear regression using GraphPad Prism 5.[78] The LDH release[79] and NO release[80] assays of the compounds was evaluated by the earlier reported methods.

In a further test the test system is S. paratyphi. In words: In vitro antibacterial assay (zone of inhibition, MIC). It is filed as cell-based, Salmonella paratyphi. The conditions noted are these: Salmonella enterica.
Source text: The free ligands and their cyclometallated ruthenium(II) carbonyl complexes were screened for their in vitro antimicrobial activity against certain pathogenic bacterial and fungal species at three different concentrations using disc diffusion method. […] Tested complexes had better antimicrobial activity than the ligands against all pathogens. This may be explained by Tweedy's chelation theory.[61] Coordination of ligands reduce the polarity of the metal ion essentially by partial sharing of its positive charge with the donor groups within the chelate ring system formed during the coordination and leading to the increase in lipophilic nature of the central metal atom, which favours the effective permeation through the lipid layer of microorganism.[61,62] […] When tested against T. rubrum, the activity of the complexes in the order of 3 > 2 > 1 > 4. In antibacterial studies, the complex 3 was effective against S. aureus followed by complex 2, 1 and 4 and in the case of S. pneumonie the activity of the complexes follows the order of 3 > 1 > 4 > 2. […] When tested against S. paratyphi complex 1 stood out as good followed by the complexes 4, 3 and 2 respectively.
as §2

The next test deals with S. aureus. The test is described as above. It is filed as cell-based, Staphylococcus aureus. The conditions noted are these: Staphylococcus aureus. As for the experimental part: as §1, §2

One may read the zone of inhibition as the extent of the growth-free halo in a diffusion test. Low values mean a weaker effect on the plate, high ones a stronger effect on the plate. Broadly, the IC50 is the point on the concentration scale where inhibition reaches its midpoint.

For the compound `COc1ccc2cc(/C(C)=N\NC(=S)Nc3ccccc3)c(=O)oc2c1` [H2L^4, ((1E)-1-(1-(7-methoxy-2-oxo-2H-chromen-3-yl)ethylidene) 4(N)-phenylthiosemicarbazone)], the zone of inhibition at 50 µg/mL in the test with Trichophyton rubrum was determined as 12.4 ± 0.32 mm; in the test with Candida tropicalis it was 12.2 ± 0.23 mm; in the test on Aspergillus niger, 12.5 ± 0.83 mm; with Aspergillus fumigatus it was 11.3 ± 0.33 mm; in the test on S. paratyphi (50 µg/ml), 12.2 ± 0.51 mm; in the test with S. aureus, 15.4 ± 0.52 mm. The zone of inhibition at 100 µg/mL was determined as 16.4 ± 0.66 mm in the test with Trichophyton rubrum; 19.2 ± 0.32 mm with Candida tropicalis; 17.3 ± 0.21 mm in the test with Aspergillus niger; 18.22 ± 0.14 mm in the test on Aspergillus fumigatus; 16.4 ± 0.51 mm in the test with S. paratyphi (100 µg/ml); 18.5 ± 0.73 mm with S. aureus. For the same compound, the IC50 in test [1] is greater than 40 µM.
